Data as given in paper PMC12040169 (PLOS Biology, 2025).

Test: in vitro
Details: human, hela cells, % viability

Cc1csc(C(Cc2cccs2)NC(=O)C2CCC(=O)N2)n1 (stereo not shown) [CBK285056]
viability at 28.5 h, 10 µM: 104%

CC(C)OC(=O)Cn1c(C2CCCNC2)cc2cccnc21 (stereo not shown) [CBK285058]
viability at 28.5 h, 10 µM: 100%

O=C(Cn1c(C2CCCNC2)cc2cccnc21)NC1CCCC1 (stereo not shown) [CBK285059]
viability at 28.5 h, 10 µM: 97.5%

O=C(CCn1c(C(F)F)cc2cccnc21)NCc1cccnc1 [CBK285066]
viability at 28.5 h, 10 µM: 91.9%

CC(NC(=O)CCn1c(C(F)F)cc2cccnc21)c1ccncc1 (stereo not shown) [CBK285069]
viability at 28.5 h, 10 µM: 91.6%

Cc1cc(NC(=O)CCn2c(C(F)F)cc3cccnc32)nn1C [CBK285071]
viability at 28.5 h, 10 µM: 90.2%

CCn1nc(NC(=O)CCn2c(C(F)F)cc3cccnc32)cc1C [CBK285072]
viability at 28.5 h, 10 µM: 83.8%

Cn1nccc1C(=O)N[C@H]1CCC[C@@H](c2c[nH]c3ccccc23)C1 [CBK285073]
viability at 28.5 h, 10 µM: 93.6%

Cc1cc(C)n(CC(=O)N2CCCC2c2cc3cccnc3[nH]2)n1 (stereo not shown) [CBK285074]
viability at 28.5 h, 10 µM: 97.1%

CC(C)OC(=O)Cn1c(C2CCNCC2)cc2cccnc21 [CBK285075]
viability at 28.5 h, 10 µM: 99.9%

COc1cccc(Cn2c(C3CCNCC3)cc3cccnc32)c1 [CBK285076]
viability at 28.5 h, 10 µM: 91.5%

COc1ccc(Cn2c(C3CCNCC3)cc3cccnc32)cc1 [CBK285077]
viability at 28.5 h, 10 µM: 96.1%

CC1CCCN(Cc2c(C3CCNCC3)[nH]c3ncccc23)C1 (stereo not shown) [CBK285078]
viability at 28.5 h, 10 µM: 78.5%

CN(Cc1c(C2CCNCC2)[nH]c2ncccc12)C1CCCCC1 [CBK285079]
viability at 28.5 h, 10 µM: 93.3%

O=C(c1cccc(F)c1)N1CCCC1c1cc2cccnc2[nH]1 (stereo not shown) [CBK285081]
viability at 28.5 h, 10 µM: 93.1%

COc1cccc(C(=O)N2CCCC2c2cc3cccnc3[nH]2)c1 (stereo not shown) [CBK285082]
viability at 28.5 h, 10 µM: 96.4%

CN(Cc1ccccc1)Cc1c(C2CCNCC2)[nH]c2ncccc12 [CBK285083]
viability at 28.5 h, 10 µM: 96%

CC1CCCN(Cc2c(C3CCNCC3)[nH]c3ncccc23)C1C (stereo not shown) [CBK285084]
viability at 28.5 h, 10 µM: 89.1%

CCC(C)NC(=O)Cn1cccc2cc(C3CCCNC3)nc1-2 (stereo not shown) [CBK285087]
viability at 28.5 h, 10 µM: 98.2%

O=C(Cn1cccc2cc(C3CCCNC3)nc1-2)N1CCCCCC1 (stereo not shown) [CBK285088]
viability at 28.5 h, 10 µM: 93.2%

Cc1csc([C@H]2Cc3ccsc3[C@@H](C3CCOC3)N2)n1 (stereo partly shown) [CBK285089]
viability at 28.5 h, 10 µM: 102%

CC1CC1C(=O)N1CCC(c2nc3ccccc3cc2N)CC1 (stereo not shown) [CBK285090]
viability at 28.5 h, 10 µM: 98.8%

Cn1nc(C2CCN(Cc3ccccc3)CC2)c2cccnc21 [CBK285095]
viability at 28.5 h, 10 µM: 94.9%

O=C(NC(Cc1ccsc1)c1nccs1)C1CC2C=CC1O2 (stereo not shown) [CBK285096]
viability at 28.5 h, 10 µM: 91.9%

Cc1csc(C(Cc2ccsc2)NC(=O)Cc2ccccn2)n1 (stereo not shown) [CBK285097]
viability at 28.5 h, 10 µM: 94.9%

Cc1csc(C(Cc2ccsc2)NC(=O)c2scnc2C)n1 (stereo not shown) [CBK285098]
viability at 28.5 h, 10 µM: 106%

Cc1csc(C(Cc2ccsc2)NC(=O)CCc2ccno2)n1 (stereo not shown) [CBK285099]
viability at 28.5 h, 10 µM: 100%

Cc1noc(C)c1C(=O)NC(Cc1ccsc1)c1cccnc1 (stereo not shown) [CBK285100]
viability at 28.5 h, 10 µM: 90.3%

CC(=O)NC(c1ccccn1)C1CCCN(C(=O)C(C)(C)C)C1 (stereo not shown) [CBK285101]
viability at 28.5 h, 10 µM: 91.6%

Cc1ccsc1C(=O)N1CCC(c2nn(C)c3ncccc23)CC1 [CBK285102]
viability at 28.5 h, 10 µM: 96.6%

CC(=O)N1Cc2cc(C)ccc2OC2(CCCN(CC3CC3)C2)C1 (stereo not shown) [CBK285104]
viability at 28.5 h, 10 µM: 88.7%

Cc1noc(C)c1C(=O)N1CCCCCC1c1nn(C)cc1Cl (stereo not shown) [CBK285106]
viability at 28.5 h, 10 µM: 101%

Cc1csc(C(Cc2ccsc2)NC(=O)C2CC3C=CC2O3)n1 (stereo not shown) [CBK285108]
viability at 28.5 h, 10 µM: 102%

CC1CCCN(Cc2c(C3CCCNC3)[nH]c3ncccc23)C1 (stereo not shown) [CBK285112]
viability at 28.5 h, 10 µM: 70.3%

Cc1csc(C(Cc2ccsc2)NC(=O)Cn2ccnc2)n1 (stereo not shown) [CBK285113]
viability at 28.5 h, 10 µM: 106%

Cn1cc(C(=O)NC(Cc2ccsc2)c2cccnc2)cn1 (stereo not shown) [CBK285118]
viability at 28.5 h, 10 µM: 99.9%

Cn1cc(C2CCCCCN2C(=O)c2ccccc2F)cn1 (stereo not shown) [CBK285119]
viability at 28.5 h, 10 µM: 107%

Cc1cc(C(=O)N2CCCCCC2c2nn(C)cc2Cl)on1 (stereo not shown) [CBK285121]
viability at 28.5 h, 10 µM: 107%

Cc1csc(C(Cc2cccs2)NC(=O)C2CCOC2)n1 (stereo not shown) [CBK285123]
viability at 28.5 h, 10 µM: 106%

Cc1cnc(C(=O)N[C@H]2C3CCCCC3[C@@H]2c2ccccc2)cn1 (stereo partly shown) [CBK285125]
viability at 28.5 h, 10 µM: 102%

Cn1nccc1C(=O)N[C@H]1C2CCCCC2[C@@H]1c1ccccc1 (stereo partly shown) [CBK285127]
viability at 28.5 h, 10 µM: 102%

Cc1nc(C)n(CC(=O)N[C@H]2C3CCCCC3[C@@H]2c2ccccc2)n1 (stereo partly shown) [CBK285128]
viability at 28.5 h, 10 µM: 94.7%

Cn1cc(C(=O)N2CCc3ncc(Cl)cc3C2)ccc1=O [CBK285130]
viability at 28.5 h, 10 µM: 100%

CN1Cc2ccccc2OC2(CCCN(C(=O)C3CC3)CC2)C1 (stereo not shown) [CBK285131]
viability at 28.5 h, 10 µM: 110%

CC(C)C(=O)N1CCCC2(CC1)CN(C)Cc1ccccc1O2 (stereo not shown) [CBK285132]
viability at 28.5 h, 10 µM: 103%

O=C(NC(Cc1cccs1)c1nccs1)c1cccnc1 (stereo not shown) [CBK285133]
viability at 28.5 h, 10 µM: 98.3%

Cn1ccc(C(=O)NC(Cc2cccs2)c2nccs2)n1 (stereo not shown) [CBK285135]
viability at 28.5 h, 10 µM: 91.4%

Cc1ccn(CCC(=O)NC(Cc2ccsc2)c2nccs2)n1 (stereo not shown) [CBK285137]
viability at 28.5 h, 10 µM: 92.5%

Cn1nccc1C(=O)NC(Cc1ccsc1)c1nccs1 (stereo not shown) [CBK285138]
viability at 28.5 h, 10 µM: 98.1%

CCc1nccn1CC(=O)NC(Cc1ccsc1)c1nccs1 (stereo not shown) [CBK285139]
viability at 28.5 h, 10 µM: 111%

Cc1ccnn1C(C)C(=O)NC(Cc1ccsc1)c1nccs1 (stereo not shown) [CBK285141]
viability at 28.5 h, 10 µM: 92.1%

CCc1onc(C)c1C(=O)NC(Cc1ccsc1)c1nccs1 (stereo not shown) [CBK285142]
viability at 28.5 h, 10 µM: 94%

Cn1ccc(C(=O)NC(Cc2ccsc2)c2nccs2)cc1=O (stereo not shown) [CBK285143]
viability at 28.5 h, 10 µM: 87%

Cc1cc(C[C@@H]2COC[C@H]2NCC(C)c2ccccc2)on1 (stereo partly shown) [CBK285145]
viability at 28.5 h, 10 µM: 88.5%

CC(=O)NC(c1nccs1)C1CCCN(CC2CCCCC2)C1 (stereo not shown) [CBK285152]
viability at 28.5 h, 10 µM: 95.1%

O=C(CCC1CCCO1)NC(Cc1ccsc1)c1cccnc1 (stereo not shown) [CBK285159]
viability at 28.5 h, 10 µM: 87.6%

c1ccc([C@@H]2CN(Cc3ccncc3)C[C@H]2c2cc[nH]n2)cc1 [CBK285161]
viability at 28.5 h, 10 µM: 88%

c1ccc([C@@H]2CN(Cc3ccccn3)C[C@H]2c2cc[nH]n2)cc1 [CBK285162]
viability at 28.5 h, 10 µM: 105%

c1ccc([C@@H]2CN(CC3CCOC3)C[C@H]2c2cc[nH]n2)cc1 (stereo partly shown) [CBK285163]
viability at 28.5 h, 10 µM: 110%

Cc1cnc2[nH]c(C3CCCN(C(=O)c4cccnc4)C3)cc2c1 (stereo not shown) [CBK285168]
viability at 28.5 h, 10 µM: 86.1%

Cc1cnc2[nH]c(C3CCCN(C(=O)c4cccnc4C)C3)cc2c1 (stereo not shown) [CBK285169]
viability at 28.5 h, 10 µM: 101%

CCN(CC)CC1CCCN(C(=O)CCn2ccc3ccncc32)C1 (stereo not shown) [CBK285174]
viability at 28.5 h, 10 µM: 85.4%

COc1ccccc1CC(C)NC(=O)CCn1ccc2ccncc21 (stereo not shown) [CBK285175]
viability at 28.5 h, 10 µM: 93.8%

Cc1ccc2nc(-c3ccc4c(c3)CCN4S(C)(=O)=O)cn2c1 [CBK285185]
viability at 28.5 h, 10 µM: 96.6%

Cc1nc(C)c(C(=O)N2CCC(c3cc4c(C)cccc4cn3)CC2)o1 [CBK285186]
viability at 28.5 h, 10 µM: 108%

Cn1ccnc1C1(O)C2CCCC1CN(Cc1ccc(F)c(F)c1)C2 (stereo not shown) [CBK285189]
viability at 28.5 h, 10 µM: 95.1%

CS(=O)(=O)N1CCc2cc(-c3cn4ccccc4n3)ccc21 [CBK285190]
viability at 28.5 h, 10 µM: 85.6%
